Results: ChEMBL document CHEMBL5505963, “Novel berberine derivatives as p300 histone acetyltransferase inhibitors in combination treatment for breast cancer” (Eur J Med Chem, 2024)
Each block holds one molecule with its values, some of them ahead of it. The source made the active and inactive calls. The rule behind the calls is not given here.

Tests used:
[1] = molecular target: Histone acetyltransferase p300 (Homo sapiens, UniProt Q09472); test: Inhibition of p300 HAT (unknown origin) using 3H-acetyl-CoA as substrate assessed as H3 peptide acetylation preincubated with compound for 15 mins followed by substrate addition and measured after 30 mins by microbeta scintillation counter analysis
PANC-1 = test: Antiproliferative activity against human PANC-1 cells assessed as inhibition of cell growth incubated for 48 hrs by MTT assay; type: functional, cell-based; conditions: PANC-1, 48 h
MCF7 [2] = test: Antiproliferative activity against human MCF7 cells assessed as inhibition of cell growth incubated for 48 hrs by MTT assay; type: functional, cell-based; conditions: MCF7, 48 h
MCF-10A [3] = test: Antiproliferative activity against human MCF-10A cells assessed as inhibition of cell growth incubated for 48 hrs by MTT assay; type: functional, cell-based
MCF-10A [4] = test: Antiproliferative activity against human MCF-10A cells assessed as inhibition of cell growth at 50 uM incubated for 48 hrs by MTT assay relative to control; type: functional
LNCaP = test: Antiproliferative activity against human LNCaP cells assessed as inhibition of cell growth incubated for 48 hrs by MTT assay; type: functional, cell-based
MCF7 [5] = test: Inhibition of cell migration in human MCF7 cells assessed as reduction in scratch measured after 24 hrs by microscopic analysis; type: functional
MCF7 [6] = test: Antitumor activity against human MCF7 cells xenografted in BALB/c nude mouse assessed as tumor growth inhibition at 2 mg/kg, ip measured upto 14 days; type: functional; conditions: MCF7, 336 h, time <= 14 day, read-out: TGI
MCF7 [7] = test: Antiproliferative activity against human MCF7 cells assessed as inhibition of cell proliferation incubated for 48 hrs by MTT assay; type: functional, cell-based; conditions: MCF7, 48 h
MCF7 [8] = test: Downregulation of survivin level in human MCF7 cells at 1 microg/ml incubated for 24 hrs by Western blot analysis; type: functional, cell-based; conditions: dose 1.0 µg/ml
MCF7 [9] = test: Induction of apoptosis in human MCF7 cells assessed as upregulation of cleaved caspase 3 level at 1 microg/ml incubated for 24 hrs by Western blot analysis; type: functional, cell-based; conditions: dose 1.0 µg/ml
MCF7 [10] = test: Inhibition of cell invasion in human MCF7 cells measured after 24 hrs by crystal violet staining based microscopic analysis; type: functional
MCF7 [11] = test: Induction of apoptosis in human MCF7 cells assessed as upregulation of cleaved PARP level at 1 microg/ml uM incubated for 24 hrs by Western blot analysis; type: functional, cell-based; conditions: dose 1.0 µg/ml

Chain of Histone acetyltransferase p300 (Q09472 whole entry): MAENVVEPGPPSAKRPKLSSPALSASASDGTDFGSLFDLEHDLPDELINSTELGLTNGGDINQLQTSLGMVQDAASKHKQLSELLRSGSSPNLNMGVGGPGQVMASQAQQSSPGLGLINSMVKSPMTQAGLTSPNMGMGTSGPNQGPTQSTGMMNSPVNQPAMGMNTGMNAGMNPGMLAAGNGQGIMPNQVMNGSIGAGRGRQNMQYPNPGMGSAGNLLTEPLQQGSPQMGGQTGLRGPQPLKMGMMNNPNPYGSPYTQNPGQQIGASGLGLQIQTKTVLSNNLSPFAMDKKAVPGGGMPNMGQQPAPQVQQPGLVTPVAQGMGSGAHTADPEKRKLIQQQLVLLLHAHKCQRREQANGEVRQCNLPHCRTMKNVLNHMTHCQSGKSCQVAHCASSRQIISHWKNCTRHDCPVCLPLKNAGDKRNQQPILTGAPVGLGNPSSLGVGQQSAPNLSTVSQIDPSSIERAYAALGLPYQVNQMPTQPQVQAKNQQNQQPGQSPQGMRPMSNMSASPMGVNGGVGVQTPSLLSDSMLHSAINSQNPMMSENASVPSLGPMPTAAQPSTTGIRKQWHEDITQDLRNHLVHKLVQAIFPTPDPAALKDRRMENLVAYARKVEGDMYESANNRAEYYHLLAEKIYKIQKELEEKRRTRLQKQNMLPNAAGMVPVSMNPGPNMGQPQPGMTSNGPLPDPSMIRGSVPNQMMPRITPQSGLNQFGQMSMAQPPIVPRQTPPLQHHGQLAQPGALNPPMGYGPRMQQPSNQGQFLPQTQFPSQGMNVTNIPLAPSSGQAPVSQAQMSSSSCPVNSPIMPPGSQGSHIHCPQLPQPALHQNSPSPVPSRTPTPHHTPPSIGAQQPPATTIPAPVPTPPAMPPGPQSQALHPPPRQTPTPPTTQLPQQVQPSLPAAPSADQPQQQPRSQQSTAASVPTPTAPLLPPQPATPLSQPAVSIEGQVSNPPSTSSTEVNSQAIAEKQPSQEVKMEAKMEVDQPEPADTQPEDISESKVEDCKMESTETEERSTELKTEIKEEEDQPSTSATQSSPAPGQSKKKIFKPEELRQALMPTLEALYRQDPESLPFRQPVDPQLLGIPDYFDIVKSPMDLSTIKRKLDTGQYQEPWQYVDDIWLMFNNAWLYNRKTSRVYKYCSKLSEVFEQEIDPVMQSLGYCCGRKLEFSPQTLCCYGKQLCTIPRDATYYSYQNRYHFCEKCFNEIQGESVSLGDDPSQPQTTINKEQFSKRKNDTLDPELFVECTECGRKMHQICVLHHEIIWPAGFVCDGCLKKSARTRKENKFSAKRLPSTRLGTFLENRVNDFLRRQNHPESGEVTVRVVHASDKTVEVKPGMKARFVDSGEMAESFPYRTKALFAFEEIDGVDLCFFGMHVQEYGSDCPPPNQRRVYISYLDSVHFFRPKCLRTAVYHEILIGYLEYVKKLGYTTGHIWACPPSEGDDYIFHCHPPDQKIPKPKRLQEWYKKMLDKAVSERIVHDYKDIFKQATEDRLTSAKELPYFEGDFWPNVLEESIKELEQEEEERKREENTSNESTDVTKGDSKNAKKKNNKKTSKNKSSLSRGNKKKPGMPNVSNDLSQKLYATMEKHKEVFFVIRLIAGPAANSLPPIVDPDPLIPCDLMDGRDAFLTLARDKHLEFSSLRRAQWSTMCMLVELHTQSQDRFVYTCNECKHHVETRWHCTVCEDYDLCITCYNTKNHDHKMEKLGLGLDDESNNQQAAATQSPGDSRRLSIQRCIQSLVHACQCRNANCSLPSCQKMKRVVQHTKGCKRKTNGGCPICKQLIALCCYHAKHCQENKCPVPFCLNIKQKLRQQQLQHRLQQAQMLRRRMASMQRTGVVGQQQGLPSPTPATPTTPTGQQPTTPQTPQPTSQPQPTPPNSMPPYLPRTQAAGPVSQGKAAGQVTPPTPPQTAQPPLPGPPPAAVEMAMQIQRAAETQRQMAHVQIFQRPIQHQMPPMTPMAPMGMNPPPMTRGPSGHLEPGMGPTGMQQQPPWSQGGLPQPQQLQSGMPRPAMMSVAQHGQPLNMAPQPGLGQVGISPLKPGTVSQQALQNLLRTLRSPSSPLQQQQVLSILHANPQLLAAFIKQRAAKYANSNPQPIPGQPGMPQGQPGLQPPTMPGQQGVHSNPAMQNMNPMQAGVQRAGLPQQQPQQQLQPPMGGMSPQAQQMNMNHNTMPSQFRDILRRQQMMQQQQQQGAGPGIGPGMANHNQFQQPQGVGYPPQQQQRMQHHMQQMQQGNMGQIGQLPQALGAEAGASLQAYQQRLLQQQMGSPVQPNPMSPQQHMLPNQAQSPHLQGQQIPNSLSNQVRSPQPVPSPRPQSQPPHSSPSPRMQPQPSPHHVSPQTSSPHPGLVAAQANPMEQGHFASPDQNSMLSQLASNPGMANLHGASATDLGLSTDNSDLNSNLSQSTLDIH

SMILES: COc1cc2cc3[n+](cc2cc1OC)CCCCOc1cc2c(cc1-3)OCO2
IC50 [1]: > 20 µM

SMILES: COc1cc2cc3[n+](cc2cc1OC)CC(C)COc1cc2c(cc1-3)OCO2 (stereo not drawn)
IC50 (PANC-1): 33.7 µM | IC50 (MCF7 [2]): 29.5 µM | IC50 (MCF-10A [3]): > 50 µM | inhibition at 50 µM (MCF-10A [4]): 77% | IC50 (LNCaP): 40.7 µM | IC50 [1]: 4.78 µM

SMILES: COc1ccc2cc3[n+](cc2c1OC)CCCOc1cc2c(cc1-3)OCO2
IC50 [1]: > 20 µM

SMILES: COc1cccc2c1C(=O)c1c(O)c3c(c(O)c1C2=O)C[C@@](O)(C(=O)CO)C[C@@H]3O[C@H]1C[C@H](N)[C@H](O)[C@H](C)O1 [DOXORUBICIN]
inhibition (INH) (MCF7 [5]): 62.43% | inhibition in vivo at 2 mg/kg (MCF7 [6]): 64.3% | IC50 (MCF7 [7]): 2.46 µM | Activity (MCF7 [8]): Active | Activity (MCF7 [9]): inactive | inhibition (MCF7 [10]): Active | Activity (MCF7 [11]): inactive

SMILES: COc1ccc2cc3[n+](cc2c1OC)CCc1ccsc1-3
IC50 [1]: > 20 µM

SMILES: COc1cc2cc3[n+](cc2cc1OC)CCS(=O)(=O)c1cc2c(cc1-3)OCO2
IC50 [1]: 11.3 µM

SMILES: COc1cc2cc3[n+](cc2cc1OC)CCCSc1cc2c(cc1-3)OCO2
IC50 [1]: 11.5 µM

SMILES: C1=CC2C=C3c4cc5c(cc4NCC[N+]3=CC2S1)OCO5 (stereo not drawn)
IC50 [1]: 7 µM

More lines, now with the values ahead:

IC50 [1]: 5.87 µM
SMILES: COc1cc2cc3[n+](cc2cc1OC)CCOCCOc1cc2c(cc1-3)OCO2

IC50 [1]: 17.5 µM
SMILES: COc1cc2cc3[n+](cc2cc1OC)CCN(C(C)=O)c1cc2c(cc1-3)OCO2

IC50 [1]: 9.69 µM
SMILES: COc1cc2cc3[n+](cc2cc1OC)CCCNc1cc2c(cc1-3)OCO2

IC50 [1]: > 20 µM
SMILES: COc1ccc2cc3[n+](cc2c1OC)CCCNc1cc2c(cc1-3)OCO2
